Here are results for 3 compounds from patent US20200270588A1, “GLUCOSYL TRANSFERASE POLYPEPTIDES AND METHODS OF USE” (Syngenta Participations AG, priority 2017, published 2020).

“And” between values parts separate entries of the source, which are not always exact repeats. Equal values may be shown once.

The target of the experiment is T1, Zea mays bx8 glucosyl transferase (SEQ ID 2) (Zea mays, UniProt Q8W2B7).
T1 construct: His tag; made in house
T1 sequence (Q8W2B7 1-459): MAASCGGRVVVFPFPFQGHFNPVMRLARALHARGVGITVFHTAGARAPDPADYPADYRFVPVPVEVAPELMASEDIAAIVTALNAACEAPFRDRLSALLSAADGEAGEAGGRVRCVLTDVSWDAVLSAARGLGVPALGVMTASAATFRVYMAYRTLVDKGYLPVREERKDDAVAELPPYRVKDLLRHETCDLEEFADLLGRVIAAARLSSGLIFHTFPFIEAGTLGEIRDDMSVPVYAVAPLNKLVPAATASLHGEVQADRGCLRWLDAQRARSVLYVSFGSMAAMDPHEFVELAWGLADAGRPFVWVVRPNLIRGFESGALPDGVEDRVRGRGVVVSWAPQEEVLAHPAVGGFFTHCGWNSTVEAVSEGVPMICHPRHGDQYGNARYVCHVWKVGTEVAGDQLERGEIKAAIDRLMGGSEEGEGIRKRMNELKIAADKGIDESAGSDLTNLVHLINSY
Description: LC/MS glucosyl transferase assay (glucoside peak area), purified enzyme. The experiment is classed as biochemical. The note with it: for integrated peak area of beta-glucoside product: LC/MS, about 60 min, ~15 pmol enzyme, relative quantification only. The procedure:
In an alternative method for assaying the various enzymes, the test glucosyl transferase enzyme is reacted with substrates exactly as above except that the assay is stopped by adding an equal volume of acetonitrile. Alternatively 50 or 100 μl samples from assay reactions are added to 500 μl ethyl acetate to stop the reaction. In this case samples are then vortexed and 400 μl of the ethyl acetate partition removed, dried down, and resuspended in 100 μl 80:20 acetonitrile/water. The formation of product gluco side and/or disappearance of substrate test herbicide is then monitored directly by LC/MS. Samples are analyzed by LC-MS using an Agilent 1290 liquid chromatography system and Thermo Q-Exactive mass spectrometer. The chromatography is achieved on a Waters Acquity C18 BEH (50×2.1 mm) 1.7 μm particle size column, using a 6 minute gradient run of Water (0.2% formic acid) and Acetonitrile. The Q-Exactive is operated in positive ionisation electrospray mode, using Full scan-AIF mode, at 35,000 resolution, between 100-800 m/z. All analytes are identified from the full scan data to within at least 5 ppm accuracy of their predicted pseudo-molecular ion [M+H]^+ m/z value. In order to obtain quantitative data standard curves are run using herbicides and herbicide glucosides synthesized as standards. Where these synthetic glucosides were not available the LC/MS assay could only be used to provide relative data.
DNA sequences, optimized for E. coli codon usage, were cloned, expressed and the various proteins purified and assayed as described in the foregoing examples. Using the UDP assay (as described in examples 1, 3 and 6) the data obtained from the Zea mays bx8 w/t protein and its variants was noisy due to relatively high background rates in DMSO reagent blanks. The values reported in the table 15 were thus monitored by LC/MS as described in example 1.
DNA sequences, optimized for E. coli codon usage, are cloned, expressed and the various proteins purified and assayed as described in the foregoing examples. As in Example 4, a DNA sequence is designed and synthesized to express the N-terminally his tagged Zea mays bx8 (SEQ ID No: 2). However in this case the DNA sequence is modified to further include a peptide insertion “GIGVD”=SEQ ID No: 102 in place of D442 of SEQ ID No: 2 and as indicated in Table 2. The resultant modified sequence is cloned into the E. coli expression plasmid pET24a using 5′ NdeI and 3′ XhoI restriction sites, expressed, purified and assayed. […] In LC/MS assays run for 30 min and similar to those described in example 7 the integrated peak areas for glucoside product from herbicide V from the w/t Zea mays bx8 SEQ ID NO:2 was 1.5E6 units whereas the corresponding number for the equivalent protein containing the GIGVD peptide insert was 2.5E6 units. […]

For `CN1CC(O)N(c2cc(C(F)(F)F)c(Cl)cn2)C1=O` (stereo not shown) [XI], the “integrated peak area of beta-glucoside product” value was 1.90E+04 and 2.36E+04 and 1.84E+04.

On to `CON1C(=O)N(c2cc(C(F)(F)F)ccn2)C(O)[C@@H]1C` (stereo partly shown) [Compound VI], for which the “integrated peak area of beta-glucoside product” value is 8.08E+06 and 7.57E+06 and 8.81E+06 and 7.78E+06. On to `CN1CC(O)N(c2cc(C(F)(F)F)ccn2)C1=O` (stereo not shown) [Compound V], for which the “integrated peak area of beta-glucoside product” value is 2.52E+06 and 2.97E+06. Moreover, under “LC/MS assay run for 30 min, N-terminally his tagged”, the “integrated peak area of glucoside product” value amounted to 1.5E6 units.
